Legend:
[1] = system: cultured DRG neurons (transected axons); test: Axon degeneration after transection of axons of cultured DRG neurons (Wallerian degeneration); format: cell-based; settings: sirturin inhibitors; nicotinamide at 50 μM
Procedure: As a first step in examining the role of NAD in Wallerian degeneration, we used an ultra-sensitive high-performance liquid chromatography (HPLC) method (Micheli and Sestini, 1997) to measure the concentration of NAD and its derivatives in degenerating axons. To do this, the acidic lysates were prepared from axonal segments collected at different time points after transecting the axons from cultured dorsal root ganglia (DRG) and resolved by reverse-phase chromatography. 2 hr after axotomy, when the transected axons were still morphologically indistinguishable from their uncut controls, NAD levels began to decrease. This NAD decrease continued over the course of degeneration, reaching about 50% at 4 hr post-axotomy, to almost undetectable levels by 6 hr after axotomy, when early morphological signs of degeneration began to develop. […] By a similar approach of alkaline extraction (Micheli and Sestini, 1997), it has been difficult for us to detect NADH in the axonal extracts, presumably due to the low abundance of NADH and the high NAD/NADH ratio reported in mammalian cells (Zhang et al., 2002, Kasischke et al., 2004, Kannurpatti et al., 2004).
To definitively determine whether preventing the local decrease in NAD levels could mediate axon protection, we employed soma-free axonal segments that have been separated from their soma as models to examine the protective effects of different pharmacological treatments. It has been shown that exogenously provided NAD, when directly added to the culture medium of DRG neurons, can be transported across the axonal membrane (Araki et al., 2004). Thus, we first examined the protective effects of different concentrations of NAD added to the culture before or after axon transection and removal of ganglia.
To further assess the local and nuclear contribution to such an NAD-dependent protection, we compared the protective effects of NAD provided at different time points. […] In this respect, our results are inconsistent with those shown by Araki et al (2004), possibly due to the different concentrations of NAD used in our studies (1-20 mM) and by Araki et al (0.1 to 1 mM).
We next attempted to explore the possible mechanisms underlying this local NAD-dependent axon protection. […] A possible explanation for this discrepancy between Araki et al (2004) and our results is the different approaches used to block Sirt1 activity. […] It is known that […], other sirturins exist and some of these proteins are localized in the cytoplasmic compartment (Onyango et al., 2002; North et al., 2003).

[2] = system: cultured hippocampal neurons; test: Synaptic loss and process degeneration in cultured hippocampal neurons (dominant-negative Nmnat1); format: cell-based; settings: 50-200 μM, up to 72 hr
Excerpt: We next attempted to examine whether decreasing NAD levels can induce similar “dying-back” axon degeneration in neurons with established synaptic connections. Such experiments might allow us to assess whether the degenerative processes in axons and other neuronal structures, including synaptic structures and dendritic processes, share similar mechanisms. To do this, we introduced both wild type and dominant negative Nmnat1 into cultured hippocampal neurons at 20 days in vitro (DIV 20), when their synaptic connections have formed and matured (Brewer et al. 1993), and examined their effects on axons as well as dendrites and synapses. As a conventional approach to visualize these neuronal structures, we also co-infected the hippocampal neurons with HSV expressing YFP. […] Moreover, neuronal NAD levels declined from 24-48 hr post-infection with viruses expressing dominant-negative Nmnat1 but not wild type Nmnat1 or YFP. Thus, we decided to focus our analysis on the first 60 hours post-infection.
To monitor changes in synaptic structures, we co-infected DIV20 neurons with HSV expressing YFP and wild type or the mutant Nmnat1, and quantified both spine density and the length and branching of axons and dendrites. As the density of dendritic spines has been considered a reliable indicator for synapse number (reviewed by Hering and Sheng, 2001), we performed high-resolution YFP imaging in neurons co-expressing YFP and Nmnat1 proteins at the indicated time points post-infection to measure the spine densities in these co-infected neurons. Dendrite length and branching patterns were analyzed using Sholl's method of regularly spaced concentric circles centered on the neuronal soma (Sholl, 1953). […]
In the experiments described above, we also performed immunostaining with antibodies against the presynaptic marker bassoon, and found a decrease of positively-stained synaptic structures. However, due to the complex morphology of the axons that makes it extremely difficult to quantify the axonal length in DIV20 hippocampal neurons, we […]. […]

[3] = system: EAE mice (wild type or Wlds); test: Mouse EAE model, subcutaneous nicotinamide (Example 9 end, Example 12); format: in vivo; settings: for reduction of neural degeneration in EAE mice: daily from day of MOG immunization
Procedure: In initial experiments, we administered nicotinamide daily starting from the day of immunization by MOG peptide, and found efficacy in both 125 mg/kg and 500 mg/kg treatment groups. We have also examined groups of mice wherein initiation of nicotinamide administration was delayed until 10 days after the immunization by MOG peptide (delayed treatment group), to better model clinical conditions wherein patients typically begin treatment after onset of pathogenic autoimmunity.
In this example we administered NAm by daily subcutaneous injection at two different dosages (125 or 500 mg/kg, dissolved by PBS) starting from the day of MOG immunization. As a control, we administered the same volume of PBS into either wild type or Wld^s mice. The EAE models were induced following essentially the procedure described in Kalyvas et al (2004, Neuron 41, 323-335). Other protocols were adapted from Wang, et al. (2005) J. Cell. Biol. 170: 349-355.
We started treatments with NAm (500 mg/kg, daily subcutaneous injection) from 10 days P.I. when most of the animals already have clear clinical symptoms.

[4] = 500 mg/kg daily s.c. from 10 days P.I.

NC(=O)c1cccnc1 [nicotinamide, 3-pyridinecarboxamide]
attenuation of the protective effect of Nmnat1 or NAD [1]: did not attenuate the protective effect
dendritic spine quantity or structure, compound alone [2]: did not induce significant changes
NAD levels, delayed treatment [3, 4]: increased NAD levels effectively
further development of EAE symptoms, delayed treatment [3, 4]: efficiently attenuated further development of EAE symptoms
number of degenerating axons, delayed treatment ([3]; 500 mg/kg daily s.c. from 10 days P.I., 8 weeks P.I.): significantly reduced the number of degenerating axons
degenerating axons detected compared with untreated animals ([3]; Wlds mice, high dose): ~5%
effect on EAE symptoms ([3]; Wlds mice, high dose 500 mg/kg): More dramatic improvements
NAD levels at 2 and 4 weeks P.I. ([3]; Wlds mice, high dose (500 mg/kg) s.c.): remained at high levels
axons remaining morphologically intact (Toluidine Blue) ([3]; Wlds mice, high dose, 8 weeks P.I.): ~90%
NAD levels at 2 weeks P.I. ([3]; daily s.c. 125 or 500 mg/kg from day of MOG immunization): dramatically increased NAD levels in a dose-dependent manner
reduction of neural degeneration in EAE mice ([3]; subcutaneous, 125 mg/kg): efficacy
reduction of neural degeneration in EAE mice ([3]; subcutaneous, 500 mg/kg): efficacy
neural degeneration versus matched controls, delayed treatment group ([3]; subcutaneous, started 10 days after MOG immunization): reduced neural degeneration
axons in peripheral regions of the spinal cord ([3]; wild type EAE mice, high dose): increased numbers of demyelinated but preserved axons
numbers of SMI-32-positive axons ([3]; wild type and Wlds mice, 2, 4 and 8 weeks P.I.): significantly reduced numbers
onset and development of EAE symptoms ([3]; wild type mice, 125 or 500 mg/kg s.c. daily): ameliorated the onset and development of EAE symptoms in a dose-dependent manner
NAD levels at 4 weeks P.I. ([3]; wild type mice, continuous daily s.c. administration): returned to near-normal levels
degenerating axons detected compared with untreated animals ([3]; wild type mice, high dose): approximately 10%
effect on EAE onset and severity ([3]; wild type mice, high dose 500 mg/kg): significant improvement
axons remaining morphologically intact (Toluidine Blue) ([3]; wild type mice, high dose, 8 weeks P.I. (control wild type EAE 25%)): approximately 70%

From patent US20060211744A1, “3-Pyridinecarboxamide reduces nerve degeneration” (Children's Medical Center, priority 2005, published 2006)
